Measured values from PubChem BioAssay AID248 (DTP/NCI, 2004).
Values joined by “and” are separate entries in the source; they are usually repeats but may differ in a detail not shown here. Equal values may be shown once. Toxic doses and inconclusive results are not listed. Rule as the data show it: active = T/C of 150% or more; inactive = T/C below 125%.

Tested on: L1210 leukemia ip in BDF1 mice, survival T/C
Assay: NCI In Vivo Anticancer Drug Screen. Data for tumor model L1210 Leukemia (intraperitoneal) in B6D2F1 (BDF1) mice
Conditions: endpoint: mean survival time, higher = longer survival
Method in brief: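 Tumor was transplanted into mice, which were then dosed with test compound or vehicle alone. Survival was recorded for each group, and the treated figure was expressed relative to the control figure.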

[1] = dose: 100.0 mg/kg/injection, schedule: Q04DX003 (ip), vehicle: saline

Measured: T/C

Cc1c2c(ccc3ccccc32)c[n+]2ccccc12
inactive: dose: 1.1 mg/kg/injection, schedule: Q01DX009 (ip), vehicle: saline 97 % of control | dose: 1.1 mg/kg/injection, schedule: Q03HX024 (ip), vehicle: saline 98 % of control | dose: 1.7 mg/kg/injection, schedule: Q01DX009 (ip), vehicle: saline 105 % of control | dose: 1.7 mg/kg/injection, schedule: Q03HX024 (ip), vehicle: saline 100 % of control | dose: 1.8 mg/kg/injection, schedule: Q01DX Z (ip), vehicle: methylcellulose (MC) 116 % of control | dose: 2.0 mg/kg/injection, schedule: Q01DX009 (ip), vehicle: saline 96 % of control | dose: 2.5 mg/kg/injection, schedule: Q01DX Z (ip), vehicle: carboxymethylcellulose (CMC) 105 % of control | dose: 2.6 mg/kg/injection, schedule: Q01DX009 (ip), vehicle: saline 102 % of control | dose: 2.6 mg/kg/injection, schedule: Q03HX024 (ip), vehicle: saline 108 % of control | dose: 2.7 mg/kg/injection, schedule: Q01DX Z (ip), vehicle: methylcellulose (MC) 105 % of control | dose: 3.0 mg/kg/injection, schedule: Q01DX009 (ip), vehicle: saline 108 % of control | dose: 4.0 mg/kg/injection, schedule: Q01DX009 (ip), vehicle: saline 103 % of control | dose: 4.0 mg/kg/injection, schedule: Q01DX Z (ip), vehicle: methylcellulose (MC) 107 % of control | dose: 4.0 mg/kg/injection, schedule: Q03HX024 (ip), vehicle: saline 98 % of control | dose: 4.4 mg/kg/injection, schedule: Q01DX Z (ip), vehicle: methylcellulose (MC) 119 % of control | dose: 4.5 mg/kg/injection, schedule: Q01DX009 (ip), vehicle: saline 108 % of control | dose: 5.0 mg/kg/injection, schedule: Q01DX001 (ip), vehicle: carboxymethylcellulose (CMC) 100 % of control | dose: 5.0 mg/kg/injection, schedule: Q01DX Z (ip), vehicle: carboxymethylcellulose (CMC) 119 % of control | dose: 6.0 mg/kg/injection, schedule: Q01DX009 (ip), vehicle: saline 105 % of control and 107 % of control | dose: 6.0 mg/kg/injection, schedule: Q03HX024 (ip), vehicle: saline 104 % of control and 106 % of control | dose: 6.25 mg/kg/injection, schedule: Q04DX003 (ip), vehicle: saline 104 % of control | dose: 6.6 mg/kg/injection, schedule: Q01DX Z (ip), vehicle: methylcellulose (MC) 121 % of control | dose: 9.0 mg/kg/injection, schedule: Q01DX009 (ip), vehicle: saline 107 % of control | dose: 10.0 mg/kg/injection, schedule: Q01DX001 (ip), vehicle: carboxymethylcellulose (CMC) 107 % of control | dose: 11.0 mg/kg/injection, schedule: Q01DX001 (ip), vehicle: saline 109 % of control | dose: 11.0 mg/kg/injection, schedule: Q04DX003 (ip), vehicle: saline 107 % of control | dose: 12.5 mg/kg/injection, schedule: Q04DX003 (ip), vehicle: saline 108 % of control | dose: 13.0 mg/kg/injection, schedule: Q01DX009 (ip), vehicle: saline 111 % of control | dose: 15.0 mg/kg/injection, schedule: Q01DX Z (ip), vehicle: methylcellulose (MC) 97 % of control | dose: 17.0 mg/kg/injection, schedule: Q01DX001 (ip), vehicle: saline 110 % of control | dose: 17.0 mg/kg/injection, schedule: Q04DX003 (ip), vehicle: saline 105 % of control | dose: 20.0 mg/kg/injection, schedule: Q01DX001 (ip), vehicle: carboxymethylcellulose (CMC) 105 % of control | dose: 20.0 mg/kg/injection, schedule: Q01DX009 (ip), vehicle: saline 123 % of control | dose: 26.0 mg/kg/injection, schedule: Q01DX001 (ip), vehicle: saline 107 % of control | dose: 26.0 mg/kg/injection, schedule: Q04DX003 (ip), vehicle: saline 112 % of control

COc1ccc2c(c1)sc(/C=C/c1ccc(O)c3ncccc13)[n+]2C
inactive: dose: 75.0 mg/kg/injection, schedule: Q01DX001 (ip), vehicle: saline 111 % of control | dose: 150.0 mg/kg/injection, schedule: Q01DX001 (ip), vehicle: saline 110 % of control | dose: 300.0 mg/kg/injection, schedule: Q01DX001 (ip), vehicle: saline 117 % of control

c1ccc(CC(Cc2ccccc2)CN2CCCC2)cc1
inactive: dose: 100.0 mg/kg/injection, schedule: Q01DX009 (ip), vehicle: saline 94 % of control | [1] 95 % of control | dose: 200.0 mg/kg/injection, schedule: Q01DX009 (ip), vehicle: saline 102 % of control | dose: 200.0 mg/kg/injection, schedule: Q04DX003 (ip), vehicle: saline 94 % of control | dose: 400.0 mg/kg/injection, schedule: Q01DX009 (ip), vehicle: saline 103 % of control | dose: 400.0 mg/kg/injection, schedule: Q04DX003 (ip), vehicle: saline 89 % of control

NC1CC(N)CC(N)C1 (stereo not drawn)
inactive: dose: 25.0 mg/kg/injection, schedule: Q04DX003 (ip), vehicle: saline 92 % of control | dose: 50.0 mg/kg/injection, schedule: Q04DX003 (ip), vehicle: saline 99 % of control | [1] 86 % of control and 91 % of control

Cc1nonc1C(=O)NN
inactive: dose: 25.0 mg/kg/injection, schedule: Q04DX002 (ip), vehicle: Klucel (hydroxypropylcellulose) (HPC) 93 % of control | dose: 50.0 mg/kg/injection, schedule: Q04DX002 (ip), vehicle: Klucel (hydroxypropylcellulose) (HPC) 110 % of control | dose: 100.0 mg/kg/injection, schedule: Q04DX002 (ip), vehicle: Klucel (hydroxypropylcellulose) (HPC) 93 % of control and 101 % of control

COc1ccccc1-n1c(O)c(N=Nc2ccccc2)c(=O)n(-c2ccc(C)cc2)c1=S
inactive: dose: 50.0 mg/kg/injection, schedule: Q04DX003 (ip), vehicle: Klucel (hydroxypropylcellulose) (HPC) 100 % of control | dose: 100.0 mg/kg/injection, schedule: Q04DX003 (ip), vehicle: Klucel (hydroxypropylcellulose) (HPC) 98 % of control | dose: 200.0 mg/kg/injection, schedule: Q04DX003 (ip), vehicle: Klucel (hydroxypropylcellulose) (HPC) 102 % of control

Oc1ccc(Cl)cc1C=Nc1ccc2c(c1)OCO2
inactive: dose: 100.0 mg/kg/injection, schedule: Q04DX002 (ip), vehicle: saline with Tween-80 91 % of control | dose: 200.0 mg/kg/injection, schedule: Q04DX002 (ip), vehicle: saline with Tween-80 88 % of control | dose: 400.0 mg/kg/injection, schedule: Q04DX002 (ip), vehicle: saline with Tween-80 91 % of control

COC(=O)C1C2CC3c4[nH]c5ccc(OC)cc5c4CCN3CC2CC(OC(=O)c2cc(OC)c(OC)c(OC)c2)C1OC (stereo not drawn)
inactive: dose: 10.0 mg/kg/injection, schedule: Q04DX003 (ip), vehicle: Klucel (hydroxypropylcellulose) (HPC) 102 % of control | dose: 20.0 mg/kg/injection, schedule: Q04DX003 (ip), vehicle: Klucel (hydroxypropylcellulose) (HPC) 98 % of control | dose: 22.81 mg/kg/injection, schedule: Q01DX009 (ip), vehicle: Klucel (hydroxypropylcellulose) (HPC) 111 % of control | dose: 40.0 mg/kg/injection, schedule: Q04DX003 (ip), vehicle: Klucel (hydroxypropylcellulose) (HPC) 114 % of control | dose: 45.62 mg/kg/injection, schedule: Q01DX009 (ip), vehicle: Klucel (hydroxypropylcellulose) (HPC) 91 % of control | dose: 80.0 mg/kg/injection, schedule: Q04DX003 (ip), vehicle: Klucel (hydroxypropylcellulose) (HPC) 96 % of control | dose: 91.25 mg/kg/injection, schedule: Q01DX009 (ip), vehicle: Klucel (hydroxypropylcellulose) (HPC) 94 % of control | dose: 160.0 mg/kg/injection, schedule: Q04DX003 (ip), vehicle: Klucel (hydroxypropylcellulose) (HPC) 93 % of control | dose: 240.0 mg/kg/injection, schedule: Q04DX003 (ip), vehicle: Klucel (hydroxypropylcellulose) (HPC) 107 % of control | dose: 365.0 mg/kg/injection, schedule: Q04DX003 (ip), vehicle: Klucel (hydroxypropylcellulose) (HPC) 102 % of control

Nc1cncc2ncc(-c3ccc(Cl)c(Cl)c3)nc12
inactive: dose: 50.0 mg/kg/injection, schedule: Q01DX001 (ip), vehicle: other 98 % of control | dose: 100.0 mg/kg/injection, schedule: Q01DX001 (ip), vehicle: other 98 % of control | dose: 200.0 mg/kg/injection, schedule: Q01DX001 (ip), vehicle: other 98 % of control | dose: 400.0 mg/kg/injection, schedule: Q01DX001 (ip), vehicle: other 100 % of control

CC(CO)(CO)N=Cc1cc(Cl)cc(Cl)c1O
inactive: dose: 50.0 mg/kg/injection, schedule: Q01DX001 (ip), vehicle: carboxymethylcellulose (CMC) 107 % of control | dose: 100.0 mg/kg/injection, schedule: Q01DX001 (ip), vehicle: carboxymethylcellulose (CMC) 97 % of control | dose: 200.0 mg/kg/injection, schedule: Q01DX001 (ip), vehicle: carboxymethylcellulose (CMC) 107 % of control | dose: 400.0 mg/kg/injection, schedule: Q01DX001 (ip), vehicle: carboxymethylcellulose (CMC) 97 % of control

CCCCCc1cc(O)c(CCCC)c(O)c1
inactive: dose: 6.25 mg/kg/injection, schedule: Q04DX002 (ip), vehicle: other 97 % of control | dose: 12.5 mg/kg/injection, schedule: Q04DX002 (ip), vehicle: other 110 % of control | dose: 25.0 mg/kg/injection, schedule: Q04DX002 (ip), vehicle: other 93 % of control | dose: 50.0 mg/kg/injection, schedule: Q04DX002 (ip), vehicle: other 93 % of control
